Where a name gives a salt, the structure may show the parent alone. Blank lines part the entries; values can stand above or below the molecule they belong to.
Legend:
[1] = tested on: melanoma cell lines; assay: Cell viability assay, melanoma cell lines (summary); assay type: cell-based; details: summary of Tables 14A and 14B; read-out: IC50s, melanoma cell lines growth
Method: (§1) Antitumor activity of the compounds and doxorubicin as a positive control was assessed by using the CellTiter-Blue Cell Viability Assay (Promega, #G8082) or CellTiter-Glow® Luminescent Cell Viability assay (Promega # G7572) according to the manufacturer's instructions. The compounds were tested at 5 or 6 concentrations in half-log increments (highest concentration 30 μM-100 μM) in duplicate or triplicate well conditions.
(§2) Tumor cells were grown at 37° C. in a humidified atmosphere with 5% CO2 in RPMI 1640 or DMEM medium, supplemented with 10% (v/v) fetal calf serum and 50 μg/ml gentamicin for up to 20 passages, and were passaged once or twice weekly. Cells were harvested using TrypLE or PBS buffer containing 1 mM EDTA, and the percentage of viable cells is determined using a CASY Model TT cell counter (OMNI Life Science). Cells were harvested from exponential phase cultures, counted and plated in 96 well flat-bottom microtiter plates at a cell density depending on the cell line's growth rate (4,000-20,000 cells/well depending on the cell line's growth rate, up to 60,000 for hematological cancer cell lines) in RPMI 1640 or DMEM medium supplemented with 10% (v/v) fetal calf serum and 50 μg/ml gentamicin (140 μl/well). Cultures were incubated at 37° C. and 5% CO2 in a humidified atmosphere. After 24 h, 10 μl of test compounds or control medium are added, and left on the cells for another 72 h. Compounds were serially diluted in DMSO, transferred in cell culture medium, and added to the assay plates. The DMSO concentration was kept constant at <0.3% v/v across the assay plate. Viability of cells was quantified by the CellTiter-Blue® cell viability assay (Promega G8081) or CellTiter-Glow® Luminescent Cell Viability assay (Promega # G7572). Fluorescence (FU) was measured by using the EnSpire® multimode plate reader (Perkin Elmer) (excitation λ=570 nm, emission λ=600 nm) or luminescent detection of ATP in viable cells was used as parameter for proliferation. Luminescence was measured with the microplate luminometer (Promega or Perkin Elmer).
(§3) Sigmoidal concentration-response curves were fitted to the data points (test-versus-control, T/C values) obtained for each tumor model using 4 parameter non-linear curve fit (Charles River DRS Datawarehouse Software) or with GraphPad prism 5.02 software. IC50 values are reported as absolute IC50 values, being the concentration of test compound at the intersection of the concentration-response curves with T/C=50%

[2] = tested on: A375; assay: Cell viability assay, melanoma cell line A375; assay type: cell-based; details: Homo sapiens, A-375
Method: as §1, §2, §3

[3] = tested on: NCI-H1437; assay: Cell viability assay, non-small lung carcinoma cell line NCI-H1437; assay type: cell-based; details: Homo sapiens
Method: as §1, §2, §3

[4] = tested on: LN-229; assay: Cell viability assay, brain carcinoma cell line LN-229; assay type: cell-based; details: Homo sapiens; LN-229 brain carcinoma cell line, 72 h, absolute IC50
Method: as §1, §2, §3

[5] = tested on: CALU-6; assay: Cell viability assay, non-small cell lung carcinoma cell line CALU-6; assay type: cell-based; details: Homo sapiens; CALU-6 non-small cell lung carcinoma cell line
Method: as §1, §2, §3

[6] = tested on: MeWo; assay: Cell viability assay, melanoma cell line MeWo; assay type: cell-based; details: Homo sapiens
Method: as §1
as §2, with “Elmer). […]” for “Elmer).”

[7] = tested on: DMS114; assay: Cell viability assay, small cell lung carcinoma cell line DMS114; assay type: cell-based; details: Homo sapiens, DMS-114
Method: as §1
as §2, with “Elmer). […]” for “Elmer).”

[8] = tested on: SH-SY-5Y; assay: Cell viability assay, brain carcinoma cell line SH-SY-5Y; assay type: cell-based; details: Homo sapiens, SH-SY5Y; SH-SY-5Y brain carcinoma cell line, 72 h, absolute IC50
Method: as §1
as §2, with “Elmer). […]” for “Elmer).”

[9] = tested on: lung carcinoma cell; assay: Cell viability assay, lung carcinoma cell lines (summary); assay type: cell-based; details: summary of Tables 7A-E; read-out: IC50s, lung carcinoma cell growth
Method: as §1, §2, §3

[10] = tested on: NCI-H292; assay: Cell viability assay, mucoepidermoid pulmonary and adenocarcinoma, NCI-H292; assay type: cell-based; details: Homo sapiens
Method: as §1
as §2, with “Elmer). […]” for “Elmer).”

[11] = tested on: HL-60; assay: Cell viability assay, acute promyelocytic leukemia cell line HL-60; assay type: cell-based; details: Homo sapiens; HL-60 acute promyelocytic leukemia cell line
Method: as §1, §2, §3

[12] = tested on: U-87MG; assay: Cell viability assay, brain carcinoma cell line U-87MG; assay type: cell-based; details: Homo sapiens; U-87MG brain carcinoma cell line, 72 h, absolute IC50
Method: as §1, §2, §3

[13] = tested on: NCI-H441; assay: Cell viability assay, mucoepidermoid pulmonary and adenocarcinoma, NCI-H441; assay type: cell-based; details: Homo sapiens
Method: as §1
as §2, with “Elmer). […]” for “Elmer).”

[14] = tested on: U-251; assay: Cell viability assay, brain carcinoma cell line U-251; assay type: cell-based; details: Homo sapiens; U-251 brain carcinoma cell line, 72 h, absolute IC50
Method: as §1, §2, §3

[15] = tested on: Panc-1; assay: Cell viability assay, pancreatic carcinoma cell line Panc-1; assay type: cell-based; details: Homo sapiens; Panc-1 pancreatic carcinoma cell line
Method: as §1, §2, §3

[16] = tested on: pancreatic carcinoma cell; assay: Cell viability assay, pancreatic carcinoma cell lines (summary); assay type: cell-based; details: summary of Table 12; read-out: IC50s, pancreatic carcinoma cell growth
Method: as §1, §2, §3

[17] = tested on: MIA-Pa-Ca-2; assay: Cell viability assay, pancreatic carcinoma cell line MIA-Pa-Ca-2; assay type: cell-based; details: Homo sapiens, MIA PaCa-2; MIA-Pa-Ca-2 pancreatic carcinoma cell line
Method: as §1, §2, §3

[18] = tested on: SC6; assay: PDX cytotoxicity assay, small cell lung carcinoma PDX SC6; assay type: cell-based
Method: PDX-derived cell cultures were obtained from tumors explanted from mice and isolated by mechanical and enzymatic dissociation. […] Cells were harvested and seeded in 96-wells plates at a density of 1.25 to 5×10^3 cells/well for cytotoxicity assays. Cells were incubated 48 h at 37° C. prior to addition of test molecules and vehicle (DMSO, 0.1%) at desired final concentrations. Cell viability was assessed before drugs' addition (T0) and 5 days after test molecules addition by measuring ATP cell content using CellTiter-Glo® Luminescent Cell Viability Assay (Promega) according to the manufacturer's instructions. Luciferase activity was measured on a luminometer (PerkinElmer® EnVision™). Each concentration of compounds was tested in triplicate.
Viability was calculated as a percentage of ATP value compared to vehicle treated controls.
For PDX primary cell cultures, the tumour tissue was washed with PBS containing antibiotic-antimycotic and non-tumour tissue and necrotic tumour tissues were separated. The tumour tissue was transferred to a new dish and cut into 1˜2 mm^3 fragments, resuspended in RPMI-1640 medium and centrifuged at 1,200 rpm for 6 min at room temperature. The pelleted material was resuspended with 15 mL of Tumour Cell Digestion Solution and incubated at 37° C. for 1 hour with agitation. […]

[19] = In vivo maximum tolerated dose in NOG mice
Method: In order to evaluate the general toxicity of selected SND compounds in an animal model, a maximum tolerated dose (MTD) in NOG mice has been undertaken. Three mice per group were treated daily or every other day over 8 days at various doses between 5 mg/kg and 10 mg/kg. Administration of the compounds was i.p. A stock solution of the compounds (40 mg/ml in DMSO) was prepared and frozen at −20° C. in aliquots for each treatment. […] Body weights were measured before each treatment. Mice were further observed for 1 week after the last treatment.

[20] = tested on: NCI-H1299; assay: Cell viability assay, non-small cell lung carcinoma cell line NCI-H1299; assay type: cell-based; details: Homo sapiens
Method: as §1, §2, §3

SMILES: CN(CCCc1ccc(-c2cc(=O)c3ccc(O)c(O)c3o2)cc1)CCN1CCN(C)CC1 [SND173, 7,8-Dihydroxy-2-(4-(3-(methyl(2-(4-methylpiperazin-1-yl)ethyl)amino)propyl)phenyl)-4H-chromen-4-one trihydrochloride]
IC50 [1]: < 10 µM
IC50 [2]: 10 µM

SMILES: CN(CCCc1ccc(-c2cc(=O)c3ccc(O)c(O)c3o2)cc1)CCN1CCCCC1 [SND171, 7,8-Dihydroxy-2-(4-(3-(methyl(2-(piperidin-1-yl)ethyl)amino)propyl)phenyl)-4H-chromen-4-one dihydrochloride]
IC50 [18]: 15 µM

SMILES: COc1c(O)ccc2c(=O)cc(-c3ccc(CCCCN4CCN(C)CC4)cc3)oc12 [SND142, 7-Hydroxy-8-methoxy-2-(4-(4-(4-methylpiperazin-1-yl)butyl)phenyl)-4H-chromen-4-one]
IC50 [5]: 1.7 µM
IC50 [15]: 1.6 µM
tolerability at the highest dose administered ([19]; 8-10 mg/kg i.p., daily or every other day over 8 days): well tolerated
MTD at 8 days ([19]; mouse, in vivo, ip, repeated i.p. administration, MTD not reached, read-out: maximum tolerated dose (MTD), estimated): > 10 mg/kg
IC50 [16]: < 10 µM
IC50 [9]: < 20 µM
IC50 [20]: 1 µM
IC50 [11]: 3.48 µM
IC50 [17]: 1 µM

SMILES: COc1c(O)ccc2c(=O)cc(-c3ccc(CN4CCCC4)cc3)oc12 [SND163]
IC50 [20]: 5.8 µM

The next lines start with the values.

IC50 [3]: 10 µM
IC50 [4]: 7 µM
SMILES: O=c1cc(-c2ccc(CCCCN3CCCCC3)cc2)oc2c3c(ccc12)OCO3 [SND390]

IC50 [5]: 7 µM
IC50 [6]: 9.8 µM
IC50 [7]: 5.4 µM
IC50 [8]: 3.7 µM
IC50 [9]: < 20 µM
IC50 [10]: 3.8 µM
IC50 [11]: 5.9 µM
IC50 [1]: < 10 µM
IC50 [3]: 3.1 µM
IC50 [12]: 7.6 µM
IC50 [13]: 5.4 µM
IC50 [4]: 11 µM
IC50 [14]: 8.4 µM
SMILES: NCCCNCCCCNCCCCc1ccc(-c2cc(=O)c3ccc4c(c3o2)OCO4)cc1 [SND392]

IC50 [15]: 3.91 µM
IC50 [16]: < 10 µM
IC50 [17]: 2.3 µM
SMILES: COc1c(O)ccc2c(=O)cc(-c3ccc(CCCCN(C)C)cc3)oc12 [SND141, 2-(4-(4-(dimethylamino)butyl)phenyl)-7-hydroxy-8-methoxy-4H-chromen-4-one]
